Test results taken from ChEMBL document CHEMBL1201862, “PubChem BioAssay data set” (2004).
Active and inactive are the calls of the source.

Key:
Format in all cases: functional
[1] = molecular target: T1, Delta-type opioid receptor (Homo sapiens, UniProt P41143); experiment: HTS Image-Based Screen for Agonists of the DOR Receptor. [Related pubchem assays (depositor defined):AID1777, AID1786, AID2133]
[2] = molecular target: T2, Kappa-type opioid receptor (Homo sapiens, UniProt P41145)
[3] = molecular target: T2, Kappa-type opioid receptor; remark: listed apart in the source
[4] = molecular target: T1, Delta-type opioid receptor; experiment: HTS Image-Based Screen for Antagonists of the DOR Receptor. [Related pubchem assays (depositor defined):AID1777, AID1785, AID1786, AID2133]
Mu-type opioid receptor [5] = molecular target: T3, Mu-type opioid receptor (Homo sapiens, UniProt P35372); experiment: mu opioid receptor activators, image-based, SAR follow-up (AID 2352)
[6] = molecular target: T2, Kappa-type opioid receptor; experiment: kappa opioid receptor activation potency – imaging, image-based, SAR follow-up (AID 2359)
Mu-type opioid receptor [7] = molecular target: T3, Mu-type opioid receptor; experiment: HTS Image-Based Screen for Agonists of the MOR Receptor. [Related pubchem assays (depositor defined):AID1777, AID1785, AID1786, AID2133]
[8] = molecular target: T2, Kappa-type opioid receptor; experiment: SAR analysis of small molecule agonists of the kappa opioid receptor via a luminescent beta-arrestin assay. [Related pubchem assays (depositor defined):AID1777, AID1786, AID1966, AID2133, AID2136, AID2348, AID2352, AID2357, AID2359, AID2370, AID2420, AID2478, AID2491, AID2492, AID2493, AID2497, AID2498, AID2500, AID449737, AID488822, AID488842]
[9] = molecular target: T2, Kappa-type opioid receptor; experiment: kappa opioid receptor blockers, image-based, SAR follow-up (AID 2348)
[10] = molecular target: T1, Delta-type opioid receptor; experiment: DOR agonists, SAR follow-up, image-based (AID 2370)
[11] = molecular target: Voltage-dependent T-type calcium channel subunit alpha-1H (Homo sapiens, UniProt O95180);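 note: channel activity triggered by adding a high calcium stimulation buffer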
Mu-type opioid receptor [12] = molecular target: T3, Mu-type opioid receptor; experiment: mu opioid receptor blockers – image-based, SAR follow-up (AID 2420);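 note: compounds added before stimulation of receptor with agonist DAMGO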
[13] = molecular target: T1, Delta-type opioid receptor; experiment: delta opioid receptor blockers – image-based, SAR follow-up (AID 2357)
Cannabinoid receptor 1 [14] = molecular target: T4, Cannabinoid receptor 1 (Homo sapiens, UniProt P21554); experiment: SAR analysis of agonists of the Cannabinoid Receptor 1 using an Image-Based Assay - Set 2. [Related pubchem assays (depositor defined):AID2013, AID2026]
[15] = molecular target: T5, G-protein coupled receptor 35 (Homo sapiens, UniProt Q9HC97); experiment: SAR analysis of Agonists of the GPR35 Receptor using an Image-Based Assay - Set 2. [Related pubchem assays (depositor defined):AID2013, AID2026]
[16] = molecular target: T6, G-protein coupled receptor 55 (Homo sapiens, UniProt Q9Y2T6); experiment: inhibition of LPI-stimulated GPR55 beta-arrestin translocation – imaging, U2OS, beta-arrestin-GFP, LPI agonist, primary screen (AID 2013);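 note: antagonist potency measured as reduced agonist-driven arrestin aggregation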
[17] = molecular target: T6, G-protein coupled receptor 55; experiment: blockade of LPI-induced GPR55 arrestin translocation – imaging, U2OS, beta-arrestin-GFP, LPI agonist, set 2, SAR follow-up (AID 2820)
Cannabinoid receptor 1 [18] = molecular target: T4, Cannabinoid receptor 1; experiment: SAR analysis of antagonists of the Cannabinoid Receptor 1 using an Image-Based Assay - Set 2. [Related pubchem assays (depositor defined):AID2013, AID2026]
[19] = molecular target: T7, Heat shock factor protein 1 (Mus musculus, UniProt P38532); experiment: decrease of HSF1-responsive luciferase luminescence – cell-based, NIH3T3, dose retest, confirmation (AID 2382);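 note: NIH3T3 fibroblasts with HSF1-driven luciferase reporter stressed by proteasome inhibitor MG132; luminescence from HSF1-driven luciferase expression after 8 hours of MG132 stress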
T7 sequence (P38532 whole entry): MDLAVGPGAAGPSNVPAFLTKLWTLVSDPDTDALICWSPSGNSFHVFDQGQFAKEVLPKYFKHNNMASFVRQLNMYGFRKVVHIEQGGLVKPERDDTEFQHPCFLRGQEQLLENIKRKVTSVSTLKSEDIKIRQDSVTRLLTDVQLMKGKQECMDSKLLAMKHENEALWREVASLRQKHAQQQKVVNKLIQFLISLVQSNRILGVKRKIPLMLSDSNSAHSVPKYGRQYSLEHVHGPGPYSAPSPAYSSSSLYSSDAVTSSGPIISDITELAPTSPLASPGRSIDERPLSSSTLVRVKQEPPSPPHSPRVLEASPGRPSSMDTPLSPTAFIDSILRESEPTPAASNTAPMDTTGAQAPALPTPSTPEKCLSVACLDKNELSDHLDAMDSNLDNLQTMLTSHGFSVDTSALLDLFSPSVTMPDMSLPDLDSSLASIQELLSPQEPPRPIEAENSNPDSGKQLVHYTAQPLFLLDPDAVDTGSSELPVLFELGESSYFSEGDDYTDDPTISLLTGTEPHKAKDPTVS

[20] = molecular target: T5, G-protein coupled receptor 35; experiment: SAR analysis of Antagonists of the GPR35 Receptor using an Image-Based Assay - Set 3. [Related pubchem assays (depositor defined):AID2013, AID2026]
Cannabinoid receptor 2 [21] = molecular target: T8, Cannabinoid receptor 2 (Homo sapiens, UniProt P34972); experiment: SAR analysis of antagonists of the Cannabinoid Receptor 2 using an Image-Based Assay. [Related pubchem assays (depositor defined):AID2013, AID2026]
Cannabinoid receptor 2 [22] = molecular target: T8, Cannabinoid receptor 2; experiment: SAR analysis of agonists of the Cannabinoid Receptor 2 using an Image-Based Assay. [Related pubchem assays (depositor defined):AID2013, AID2026]

T3 sequence (P35372 whole entry): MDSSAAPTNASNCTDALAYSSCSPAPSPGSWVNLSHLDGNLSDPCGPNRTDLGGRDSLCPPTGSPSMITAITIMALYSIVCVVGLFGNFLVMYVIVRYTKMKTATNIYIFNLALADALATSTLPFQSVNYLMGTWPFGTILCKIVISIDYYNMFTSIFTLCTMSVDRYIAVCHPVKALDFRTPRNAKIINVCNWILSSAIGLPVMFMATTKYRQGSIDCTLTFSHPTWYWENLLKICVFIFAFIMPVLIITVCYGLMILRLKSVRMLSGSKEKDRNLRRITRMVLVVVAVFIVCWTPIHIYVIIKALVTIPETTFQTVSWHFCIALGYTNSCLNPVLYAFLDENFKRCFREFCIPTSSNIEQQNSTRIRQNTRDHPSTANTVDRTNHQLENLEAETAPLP
T1 sequence (P41143 whole entry): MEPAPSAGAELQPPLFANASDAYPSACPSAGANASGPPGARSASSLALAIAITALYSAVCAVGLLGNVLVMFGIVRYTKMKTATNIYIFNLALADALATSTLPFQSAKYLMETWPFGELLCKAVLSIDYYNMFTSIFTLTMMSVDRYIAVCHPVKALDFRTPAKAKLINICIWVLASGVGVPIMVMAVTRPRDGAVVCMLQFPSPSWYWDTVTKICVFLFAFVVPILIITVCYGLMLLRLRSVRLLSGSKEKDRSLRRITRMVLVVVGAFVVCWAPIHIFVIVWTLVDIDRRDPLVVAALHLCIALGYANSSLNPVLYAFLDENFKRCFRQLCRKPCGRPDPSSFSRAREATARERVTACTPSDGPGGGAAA
T2 sequence (P41145 whole entry): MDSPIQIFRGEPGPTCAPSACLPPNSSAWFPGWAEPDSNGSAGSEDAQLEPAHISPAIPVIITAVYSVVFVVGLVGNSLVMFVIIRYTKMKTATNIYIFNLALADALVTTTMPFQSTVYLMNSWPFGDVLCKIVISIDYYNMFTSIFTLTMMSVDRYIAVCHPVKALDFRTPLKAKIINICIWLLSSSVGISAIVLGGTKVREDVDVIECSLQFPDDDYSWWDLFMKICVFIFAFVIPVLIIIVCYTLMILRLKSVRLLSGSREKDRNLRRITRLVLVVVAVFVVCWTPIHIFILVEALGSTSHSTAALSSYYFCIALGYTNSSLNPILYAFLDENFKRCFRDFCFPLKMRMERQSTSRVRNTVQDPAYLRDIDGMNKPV
T8 sequence (P34972 whole entry): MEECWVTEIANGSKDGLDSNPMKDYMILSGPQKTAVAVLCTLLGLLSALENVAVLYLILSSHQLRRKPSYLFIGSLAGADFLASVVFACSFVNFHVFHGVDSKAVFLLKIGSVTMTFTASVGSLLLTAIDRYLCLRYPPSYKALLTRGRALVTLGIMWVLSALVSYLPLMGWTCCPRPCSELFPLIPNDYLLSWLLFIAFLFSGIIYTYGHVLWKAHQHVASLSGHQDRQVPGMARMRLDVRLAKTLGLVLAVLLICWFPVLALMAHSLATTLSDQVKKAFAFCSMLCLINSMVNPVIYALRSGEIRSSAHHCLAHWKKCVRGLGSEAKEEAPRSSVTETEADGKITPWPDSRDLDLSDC
T6 sequence (Q9Y2T6 whole entry): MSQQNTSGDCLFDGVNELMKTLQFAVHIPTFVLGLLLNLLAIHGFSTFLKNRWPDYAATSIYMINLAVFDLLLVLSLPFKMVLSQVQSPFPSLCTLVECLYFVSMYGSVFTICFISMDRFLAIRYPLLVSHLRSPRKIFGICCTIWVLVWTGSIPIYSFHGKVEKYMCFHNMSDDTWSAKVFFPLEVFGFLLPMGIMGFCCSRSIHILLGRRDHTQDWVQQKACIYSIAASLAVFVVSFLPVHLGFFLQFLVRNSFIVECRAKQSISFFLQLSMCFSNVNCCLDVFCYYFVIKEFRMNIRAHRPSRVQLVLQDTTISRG
T4 sequence (P21554 whole entry): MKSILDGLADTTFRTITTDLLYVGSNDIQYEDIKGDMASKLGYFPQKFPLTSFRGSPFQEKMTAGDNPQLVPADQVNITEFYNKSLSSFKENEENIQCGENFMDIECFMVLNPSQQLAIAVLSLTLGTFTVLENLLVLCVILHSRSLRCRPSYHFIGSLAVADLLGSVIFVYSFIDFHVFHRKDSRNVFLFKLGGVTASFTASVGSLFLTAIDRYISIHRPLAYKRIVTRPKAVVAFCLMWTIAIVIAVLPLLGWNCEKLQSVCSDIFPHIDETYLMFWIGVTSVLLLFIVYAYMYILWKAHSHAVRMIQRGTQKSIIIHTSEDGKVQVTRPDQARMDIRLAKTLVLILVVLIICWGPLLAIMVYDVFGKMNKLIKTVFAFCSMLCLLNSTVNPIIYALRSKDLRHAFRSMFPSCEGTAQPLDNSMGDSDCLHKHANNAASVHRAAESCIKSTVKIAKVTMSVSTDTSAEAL
T5 sequence (Q9HC97 whole entry): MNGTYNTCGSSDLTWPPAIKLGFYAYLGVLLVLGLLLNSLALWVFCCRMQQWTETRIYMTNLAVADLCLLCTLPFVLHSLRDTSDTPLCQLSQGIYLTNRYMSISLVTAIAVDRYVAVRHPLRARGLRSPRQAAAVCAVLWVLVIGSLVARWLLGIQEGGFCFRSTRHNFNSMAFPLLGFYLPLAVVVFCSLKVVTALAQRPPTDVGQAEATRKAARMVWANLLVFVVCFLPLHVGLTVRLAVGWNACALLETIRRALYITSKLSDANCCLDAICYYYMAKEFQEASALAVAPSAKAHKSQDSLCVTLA
Chain of Voltage-dependent T-type calcium channel subunit alpha-1H (O95180 whole entry): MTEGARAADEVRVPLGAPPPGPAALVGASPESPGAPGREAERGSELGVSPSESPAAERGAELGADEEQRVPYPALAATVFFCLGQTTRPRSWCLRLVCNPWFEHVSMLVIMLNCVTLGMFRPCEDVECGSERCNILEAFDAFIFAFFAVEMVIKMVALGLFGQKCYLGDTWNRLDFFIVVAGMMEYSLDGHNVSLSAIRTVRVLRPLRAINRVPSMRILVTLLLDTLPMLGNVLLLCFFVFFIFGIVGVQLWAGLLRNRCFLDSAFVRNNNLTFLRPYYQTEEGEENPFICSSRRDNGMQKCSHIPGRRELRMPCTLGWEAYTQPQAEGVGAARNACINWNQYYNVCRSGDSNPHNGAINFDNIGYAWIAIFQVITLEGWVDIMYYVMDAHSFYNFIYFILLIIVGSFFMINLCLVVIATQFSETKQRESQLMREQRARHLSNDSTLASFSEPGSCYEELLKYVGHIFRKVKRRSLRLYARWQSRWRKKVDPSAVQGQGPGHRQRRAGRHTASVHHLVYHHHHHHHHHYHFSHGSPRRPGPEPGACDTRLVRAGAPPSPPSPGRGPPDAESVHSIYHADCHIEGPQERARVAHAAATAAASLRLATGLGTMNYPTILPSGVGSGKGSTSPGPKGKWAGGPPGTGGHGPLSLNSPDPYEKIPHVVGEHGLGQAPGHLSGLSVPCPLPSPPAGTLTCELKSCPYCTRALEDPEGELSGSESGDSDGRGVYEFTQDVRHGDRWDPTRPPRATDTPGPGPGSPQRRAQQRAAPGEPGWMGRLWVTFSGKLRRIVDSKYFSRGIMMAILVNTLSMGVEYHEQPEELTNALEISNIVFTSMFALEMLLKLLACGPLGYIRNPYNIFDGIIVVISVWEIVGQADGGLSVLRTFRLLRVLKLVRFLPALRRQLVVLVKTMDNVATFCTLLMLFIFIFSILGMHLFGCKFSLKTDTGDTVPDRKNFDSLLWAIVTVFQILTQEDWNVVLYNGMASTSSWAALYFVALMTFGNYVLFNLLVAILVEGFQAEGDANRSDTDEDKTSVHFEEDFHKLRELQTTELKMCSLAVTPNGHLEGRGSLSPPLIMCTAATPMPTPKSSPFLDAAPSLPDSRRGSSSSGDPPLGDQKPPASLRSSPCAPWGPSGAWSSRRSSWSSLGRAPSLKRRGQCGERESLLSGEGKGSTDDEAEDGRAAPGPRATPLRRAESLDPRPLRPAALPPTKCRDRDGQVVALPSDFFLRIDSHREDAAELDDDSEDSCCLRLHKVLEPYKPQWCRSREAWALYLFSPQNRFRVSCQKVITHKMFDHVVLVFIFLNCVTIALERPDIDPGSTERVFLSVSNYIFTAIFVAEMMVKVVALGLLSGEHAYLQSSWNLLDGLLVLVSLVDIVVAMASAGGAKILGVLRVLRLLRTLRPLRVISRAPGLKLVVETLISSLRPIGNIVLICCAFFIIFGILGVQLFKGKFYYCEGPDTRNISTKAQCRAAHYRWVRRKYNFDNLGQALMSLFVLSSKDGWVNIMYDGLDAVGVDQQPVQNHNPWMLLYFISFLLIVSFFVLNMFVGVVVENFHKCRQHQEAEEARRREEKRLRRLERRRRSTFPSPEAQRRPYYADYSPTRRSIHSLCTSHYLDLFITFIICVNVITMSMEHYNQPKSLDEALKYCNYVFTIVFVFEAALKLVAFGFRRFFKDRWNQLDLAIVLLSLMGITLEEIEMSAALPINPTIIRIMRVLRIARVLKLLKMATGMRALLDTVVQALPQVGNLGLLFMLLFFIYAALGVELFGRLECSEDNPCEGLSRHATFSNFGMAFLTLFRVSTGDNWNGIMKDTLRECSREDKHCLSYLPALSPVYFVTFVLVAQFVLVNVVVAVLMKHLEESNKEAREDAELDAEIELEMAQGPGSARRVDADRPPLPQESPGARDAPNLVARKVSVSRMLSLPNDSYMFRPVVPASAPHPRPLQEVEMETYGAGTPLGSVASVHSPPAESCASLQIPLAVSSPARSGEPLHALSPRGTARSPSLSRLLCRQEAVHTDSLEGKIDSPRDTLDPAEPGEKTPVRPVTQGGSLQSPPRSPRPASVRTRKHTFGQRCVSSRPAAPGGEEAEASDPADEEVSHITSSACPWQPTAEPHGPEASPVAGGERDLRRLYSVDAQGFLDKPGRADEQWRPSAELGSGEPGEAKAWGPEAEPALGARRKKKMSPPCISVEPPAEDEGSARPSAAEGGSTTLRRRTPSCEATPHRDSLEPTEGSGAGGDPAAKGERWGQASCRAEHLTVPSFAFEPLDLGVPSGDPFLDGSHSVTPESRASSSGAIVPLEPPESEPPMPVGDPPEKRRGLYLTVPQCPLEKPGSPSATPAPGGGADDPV

COc1cc(Cl)c(C)cc1NC(=O)CSc1nnc(-c2ccccn2)n1Cc1ccco1
inactive: EC50 [1] > 32 µM | IC50 [4] > 32 µM | EC50 (Mu-type opioid receptor [5]) > 32 µM | EC50 [6] 16.3 µM | EC50 (Mu-type opioid receptor [7]) > 32 µM | EC50 [8] > 10 µM | IC50 [9] > 32 µM | EC50 [10] > 32 µM | IC50 (Mu-type opioid receptor [12]) > 32 µM | IC50 [13] > 32 µM
active: EC50 [11] 7.53 µM
11.9 µM: EC50 [3]
20.3 µM: EC50 [2]

CCN1C(=O)C(c2ccc(O)cc2)(c2ccc(O)cc2)c2ccccc21
active: IC50 [16] 1.74 µM | IC50 [17] 0.506 µM
> 195 µM (not active): EC50 [19]
inactive: EC50 (Cannabinoid receptor 1 [14]) > 32 µM | EC50 [15] > 32 µM | IC50 (Cannabinoid receptor 1 [18]) 22 µM | IC50 [20] > 32 µM | IC50 (Cannabinoid receptor 2 [21]) > 32 µM | EC50 (Cannabinoid receptor 2 [22]) > 32 µM
